Read-outs that look alike come from different tables or passages of the source.
Assays:
histamine H2 -receptor = molecular target: T1, histamine H2 -receptor (Cavia porcellus, UniProt P47747); test: Inhibition of histamine-induced tachycardia in the isolated guinea-pig right atrium; type: cell-based
T1 construct: a spontaneously beating isolated portion of the guinea pig right atrium; from tissue; host or cells: guinea pig right atrium
Experimental: In the guinea pig atrium test a spontaneously beating isolated portion of the guinea pig right atrium is secured under tension (300 mg) between an anchorage and a transducer in a 15 ml tissue bath and immersed in McEwens solution with constant aeration at a temperature of 37° C. The output from the transducer is amplified. Output is in turn fed to a flat bed recorder. Measured amounts of histamine are added to the tissue bath so that the histamine concentration increases step-wise until the rate of beating reaches a maximum. The tissue bath is washed out and filled with fresh McEwens solution containing compound under test. The solution is left in contact with the tissue for 60 min. and measured amounts of histamine are added again until a maximum rate is recorded. The assay is repeated with increasing concentrations of test compound and the dose of histamine giving 50% of maximum rate is noted. A dose ratio (DR) was calculated by comparing the concentrations of histamine required to produce 50% maximum response in the absence and in the presence of the antagonist. A plot of Log DR-1 against LOG D (the concentration of compound under test) is made and the point of intersection with the Log (DR-1) ordinate is taken as the measure of the activity (pA2 value).

[1] = molecular target: T2, brain histamine H2 -receptor (Cavia porcellus, UniProt P47747); test: Inhibition of 3H-tiotidine binding to guinea pig cerebral cortex membranes
T2 construct: from tissue; host or cells: guinea pig cerebral cortex membranes
T2 sequence (P47747 whole entry): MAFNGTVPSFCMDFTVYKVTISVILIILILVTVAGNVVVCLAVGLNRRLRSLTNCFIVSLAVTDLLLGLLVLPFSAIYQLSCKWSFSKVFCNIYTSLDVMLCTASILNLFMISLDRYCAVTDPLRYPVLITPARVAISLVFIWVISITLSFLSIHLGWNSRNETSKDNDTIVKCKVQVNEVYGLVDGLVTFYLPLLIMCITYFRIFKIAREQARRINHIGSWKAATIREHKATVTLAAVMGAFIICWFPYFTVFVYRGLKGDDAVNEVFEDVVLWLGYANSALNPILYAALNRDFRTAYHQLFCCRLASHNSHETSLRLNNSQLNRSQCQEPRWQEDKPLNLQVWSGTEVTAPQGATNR

[2] = molecular target: T2, brain histamine H2 -receptor; test: Inhibition of dimaprit stimulated cyclic AMP accumulation in guinea pig hippocampal slices; type: cell-based
physchem = conditions: octanol/water
[3] = system: leptazol-induced tonic extensor spasm; test: Anticonvulsant activity: leptazol (pentylenetetrazol)-induced convulsions in mice; type: in vivo; conditions: subcutaneously, dose-dependent (stated for Examples 5 and 6)
[4] = system: maximal electroshock seizures; test: Anticonvulsant activity: maximal electroshock seizures in mice; type: in vivo; conditions: subcutaneously
[5] = system: pial artery dilatation induced by histamine; conditions: cat, locally applied; Wahl & Kuschinsky; cited from earlier work
[6] = system: pial artery dilatation induced by histamine; test: Cat pial artery in situ: antagonism of dilatation induced by perivascularly applied histamine; type: in vivo
[7] = Δ log P (log P octanol/water minus log P cyclohexane/water)
[8] = system: maximal electroshock seizures; conditions: mice; cited from earlier work
[9] = system: bicuculline injection induced convulsions; conditions: mice; cited from earlier work
[10] = system: leptazol-induced tonic extensor spasm; conditions: mice; cited from earlier work
[11] = Blood-brain barrier penetration in urethane-anaesthetised rats (radiolabelled compound, infusion); conditions: rat, intravenous bolus then infusion, approximately 2 μM blood concentrations, at least 2 hours; separate determinations
Experimental: The levels of compound and inulin in the blood are monitored and the infusion maintained for at least 2 hours until equilibria (or at least approximate blood plateaux) are achieved. The rat is exsanguinated to minimise blood contamination of the brain. […] The tissues are weighed and then dissolved in a tissue solubiliser, e.g. Soluene-100 overnight at 37° C. in glass vials. […] Glacial acetic acid is added to each vial in order to neutralise the soluene and reduce chemiluminescence. Dimilume-30 (15 ml) is added as the scintillant and the vials left for 12 hours in the scintillation counter in order to further reduce chemiluminescence prior to counting for activity.

[12] = isolated guinea pig right atrium, 37° C., 60 min contact, histamine agonist, read-out: pA2 (converted)
[13] = 3H-tiotidine, guinea pig cerebral cortex membranes, read-out: pKi cortex (converted)
[14] = dimaprit stimulated cyclic AMP accumulation, guinea pig hippocampal slices, read-out: pKi (converted)

T1 sequence (P47747 whole entry): as above

SMILES	Kb (histamine H2 -receptor; [12]) [nM]	Ki [1, 13] [nM]	further results
c1cncc(NCCCOc2cccc(CN3CCCCC3)c2)c1 [Example 11, 3-[3-[3-(Piperidinomethyl)phenoxy]propylamino]pyridine]		794	
c1cc(CN2CCCCC2)cc(OCCCNc2nc3ccccc3[nH]2)c1 [Description 1, 2-[3-[3-(Piperidinomethyl)phenoxy]propylamino]benzimidazole]	63.1	25.1	Ki [2, 14]: 37.2 nM
CCOc1cc(NCCCOc2cccc(CN3CCCCC3)c2)nc2ccccc12 [Example 8, 2-[3-[3-(Piperidinomethyl)phenoxy]propylamino]-4-ethoxyquinoline]	2000	200	
Cn1c(NCCCOc2cccc(CN3CCCCC3)c2)nc2ccccc21 [Example 10, 2-[3-[3-(Piperidinomethyl)phenoxy]propylamino]-1-methylbenzimidazole]	7940	31.6	Ki [2, 14]: 2 nM
COc1cccc(NCCCOc2cccc(CN3CCCCC3)c2)n1 [Example 7, 2-[3-[3-(Piperidinomethyl)phenoxy]propylamino]-6-methoxypyridine]	794	501	
c1cc(CN2CCCCC2)cc(OCCCNc2ccc3ccccc3n2)c1 [Example 3, 2-[3-[3-(Piperidinomethyl)phenoxy]propylamino]quinoline]	631	12.6	Ki [2, 14]: 10.7 nM
c1cnc(NCCCOc2cccc(CN3CCCCC3)c2)nc1 [Example 4, 2-[3-[3-(Piperidinomethyl)phenoxy]propylamino]pyrimidine]	2000	3160	Ki [2, 14]: 22900 nM
c1ccc(NCCCOc2cccc(CN3CCCCC3)c2)nc1 [Example 6, 2-[3-[3-(Piperidinomethyl)phenoxy]propylamino]pyridine]	794	100	logP (physchem): 2.88; doses protecting against leptazol-induced tonic extensor spasm [3]: 30 to 100 mg/kg; Ki [2, 14]: 56.2 nM; doses protecting against maximal electroshock seizures [4]: 30 to 100 mg/kg
CN/C(=N/CCSCc1nc[nH]c1C)NC#N [cimetidine, reference compound]			antagonism of pial artery dilatation induced by histamine [5]: antagonises the pial artery dilatation; antagonism of pial artery dilatation induced by histamine ([6]; intravenous): failed to antagonise
c1cc(CN2CCCCC2)cc(OCCCNc2nc3ccccc3s2)c1 [Example 5, 2-[3-[3-(Piperidinomethyl)phenoxy]propylamino]benzthiazole]			Kb (histamine H2 -receptor): 25.1 nM; logP (physchem): 1.46; Δ log P [7]: 1.74; Ki [1]: 79.4 nM; antagonism of pial artery dilatation induced by histamine ([6]; intravenous): antagonised the pial artery dilatation; antagonism of pial artery dilatation induced by histamine ([6]; locally applied): antagonised the pial artery dilatation; doses protecting against leptazol-induced tonic extensor spasm [3]: 10 to 30 mg/kg; Ki [2]: 15.8 nM; doses protecting against maximal electroshock seizures [4]: 30 to 100 mg/kg
c1cc(CN2CCCCC2)cc(OCCc2c[nH]cn2)c1 [Example 25, 4(5)-[2-[3-(Piperidinomethyl)phenoxy]ethyl]imidazole]	25100	794	
O=C1NC(=O)C(c2ccccc2)(c2ccccc2)N1 [phenytoin sodium]			antagonism of maximal electroshock (MES) convulsions, known drug [8]: antagonise; antagonism of bicuculline convulsions, known drug [9]: antagonise; antagonism of leptazol (pentylenetetrazol) convulsions, known drug [10]: antagonise
c1cc(CN2CCCCC2)cc(OCCCNc2nc3ccccc3o2)c1 [Example 1, 2-[3-[3-(Piperidinomethyl)phenoxy]propylamino]benzoxazole]	63.1	79.4	doses protecting against leptazol-induced tonic extensor spasm [3]: 10 to 100 mg/kg; Ki [2, 14]: 21.9 nM; doses protecting against maximal electroshock seizures [4]: 30 to 100 mg/kg
c1cc(CN2CCCCC2)cc(OCCCNc2nccs2)c1 [Example 9, 2-[3-[3-(Piperidinomethyl)phenoxy]propylamino]thiazole]	39.8	63.1	Ki [2, 14]: 63.1 nM
CN(C)CCCN1c2ccccc2CCc2ccccc21 [Imipramine]			molar ratio of compound in the brain to compound in the blood [11]: 3.5

Further lines, with some results ahead:

Kb (histamine H2 -receptor; [12]) [nM]	Ki [1, 13] [nM]	SMILES	further results
20	25.1	c1cc(CN2CCCCC2)cc(OCCCNc2ncnc3ccccc23)c1 [Example 19, 4-[3-[3-(Piperidinomethyl)phenoxy]propylamino]quinazoline]	
126	39.8	c1cc(CN2CCCCC2)cc(OCCCCc2nc3ccccc3[nH]2)c1 [Example 28, 2-[4-[3-(Piperidinomethyl)phenoxy]butyl]-1H-benzimidazole]	
20000	3980	c1cc(CN2CCCCC2)cc(OCCc2nc3ccccc3[nH]2)c1 [Example 26, 2-[2-[3-(Piperidinomethyl)phenoxy]ethyl]-1H-benzimidazole]	
100	316	c1cc(CN2CCCC2)cc(OCCCNc2nc3ccccc3s2)c1 [Example 22, 2-[3-[3-(Pyrrolidinomethyl)phenoxy]propylamino]benzthiazole]	
316	100	c1cc(CN2CCCCC2)cc(OCCCc2nc3ccccc3[nH]2)c1 [Example 27, 2-[3-[3-(Piperidinomethyl)phenoxy]propyl]-1H-benzimidazole]	
1260	631	CN(C)Cc1cccc(OCCCNc2nc3ccccc3s2)c1 [Example 21, 2-[3-[3-(Dimethylaminomethyl)phenoxy]propylamino]benzthiazole]	
631	39.8	COc1cccnc1NCCCOc1cccc(CN2CCCCC2)c1 [Example 18, 2-[3-[3-(Piperidinomethyl)phenoxy]propylamino]-3-methoxypyridine]	
398	39.8	c1cc(CN2CCCCC2)cc(OCCCNc2nccc3ccccc23)c1 [Example 12, 1-[3-[3-(Piperidinomethyl)phenoxy]propylamino]isoquinoline]	
316	1260	c1cc(CN2CCCCCC2)cc(OCCCNc2nc3ccccc3s2)c1 [Example 23, 2-[3-[3-(Hexahydroazepinomethyl)phenoxy]propylamino]benzthiazole]	
2510	126	Cc1nc(NCCCOc2cccc(CN3CCCCC3)c2)sc1C [Example 14, 2-[3-[3-(Piperidinomethyl)phenoxy]propylamino]-4,5-dimethylthiazole]	
6310	794	c1cc(CN2CCCCC2)cc(OCCNc2nc3ccccc3s2)c1 [Example 16, 2-[2-[3-(Piperidinomethyl)phenoxy]ethylamino]benzthiazole]	
126	158	c1cc(CN2CCCCC2)cc(OCCCCNc2nc3ccccc3s2)c1 [Example 17, 2-[4-[3-(Piperidinomethyl)phenoxy]butylamino]benzthiazole]	
25100	398	Cc1cc2nc(NCCCOc3cccc(CN4CCCCC4)c3)sc2cc1C [Example 24, 2-[3-[3-(Piperidinomethyl)phenoxy]propylamino]-5,6-dimethylbenzthiazole]	
